Measured values as given in US20090176786A1, “Benzoylurea Compounds and Use Thereof” (priority 2005, published 2009).
Read-outs that look alike come from different tables or passages of the source.

Tests used:
Assay type in all cases: in vivo
Spondoptela litura = experiment: Test Example 3: treated artificial diet (Insecta LF), dead pest rate of Spondoptela litura larvae; details: 144 h, 2 mL on Insecta LF diet, 5 fourth-instar larvae, after 6 days
Source text: Ten parts of the present compound (1) to (5), (7) to (13), (18) to (33), (35) to (49), (52) to (56), (58) to (61), (71), (73) to (77), (79), (80), (82), (83), (93), (94), (95), (96), (97), (100) to (109), (111), (112), (115), (117), (119), (121), or (123) to (133), 35 parts of white carbon containing 50 parts of polyoxyethylene alkyl ether sulfate ammonium salt, and 55 parts of water were mixed, and finely ground by a wet grinding method to obtain a preparation. The obtained preparation was diluted with water so that the active ingredient concentration became to 500 ppm to prepare a pesticidal solution for test. On the bottom of a polyethylene cup having a diameter of 5.5 cm, a filter paper having a diameter of 5.5 cm was placed, on which Insecta LF (Nippon Agriculture Industries, Co., Ltd.) sliced in a thickness of 6 mm and further cut half was laid, and to which 2 mL of the above-described pesticidal solution for test was added. After air-dried, 5 fourth-instar larvae of Spondoptela litura were released in the cup, and the cup was capped. After 6 days, the number of dead pests was counted, and the dead pest rate was calculated by the following equation:
(§1) Dead pest rate(%)=(the number of dead pests/the number of tested pests)×100

[1] = system: Frankliniella occidentalis; experiment: Test Example 4: spray on cucumber, control value against Frankliniella occidentalis larvae; details: 168 h, spray 20 ml/cup on cucumber, 30 larvae, seven days after spraying; for pest or weed control at 50 ppm: test concentration 50 ppm; for pest or weed control at 12.5 ppm: test concentration 12.5 ppm
Description: The obtained preparation was diluted with water so that the active ingredient concentration became to a predetermined concentration to prepare a spray solution for test. […] were planted in polyethylene cups, and were grown until the first true leaf was developed. The spray solution for test prepared above was sprayed at the rate of 20 ml/cup on the cucumber. After the pesticidal solution sprayed onto the cucumber was dried, the first true leaf was cut off and then placed on a filter paper (diameter: 70 mm) containing water in a polyethylene cup (diameter: 110 mm). On the cucumber leaf, 30 larvae of Frankliniella occidentalis were released, and the polyethylene cup was capped. Seven days after spraying, the number of pests surviving on the cucumber leaf was counted, and a control value was calculated by the following equation: Control value(%)={1−(Cb×Tai)/(Cai×Tb)}×100 wherein, each symbol has following meaning: Cb: the number of pests before treatment in a non-treated area Cai: the number of pests at the time of observation in a non-treated area Tb: the number of pests before treatment in a treated-area Tai: the number of pests at the time of observation in a treated-area. […] The test concentrations of the other present compounds were 50 ppm.

Plutella xylostella = experiment: Test Example 2: cabbage root immersion (systemic), dead pest rate of Plutella xylostella larvae; details: for pest or weed control at 25 ppm / pest or weed control at 5 ppm / pest or weed control at 1 ppm: Plutella xylostella, 120 h; for pest or weed control at 5 ppm: read-out: dead pest rate; for pest or weed control at 1 ppm: test concentration of 1 ppm
Description: In 0.25 mL of a mixture solution of Sorgen TW-20 (manufactured by Daiichi Industries Pharmaceuticals, Co., Ltd.) and acetone (mixture volume ratio; Sorgen TW-20:acetone=1:19), 2.5 mg of the present compound (1), (2), (3), (4), (7), (10), (11), (12), (16), (18), (19), (20), (21), (22), (25), (30), (36), (37), (41), (42), (52), (54), (56), (57), (60), (62), (105) or (109) was dissolved. The solution was diluted with ion-exchanged water so that the active ingredient concentration became to a predetermined concentration to prepare a pesticidal solution for test of the test compound. The root part of cabbages in the fourth leaf period were washed with tap water to remove soils, and then immersed in the pesticidal solution for test. After 5 days from immersion of the root part, the root part was removed, and the leaves and stems were put in a cup (volume; 180 mL). In the cup 10 second-instar larvae of Plutella xylostella were released, and the cup was stored at 24° C. After 5 days, the number of dead pests was counted, and the dead pest rate was calculated by the following equation:
as §1
The test concentrations of the other present compounds were 25 ppm.

[2] = test concentration 25 ppm, root immersion 5 days, 10 second-instar larvae, after 5 days at 24° C.
[3] = root immersion 5 days, 10 second-instar larvae, after 5 days at 24° C.
[4] = test concentration of 5 ppm, root immersion 5 days, 10 second-instar larvae, after 5 days at 24° C.

## CN(C(=O)N(C(=O)c1c(F)cccc1F)N1CCOCC1)c1ccc(SC(F)(F)F)cc1F [(79)]
Spondoptela litura
  pest or weed control at 500 ppm: 100%

## CN(C(=O)c1c(F)cccc1F)C(=O)N(C)c1ccc(SC(F)(F)C(F)OC(F)(F)F)cc1F (stereo not shown) [(110)]
[1]
  pest or weed control at 50 ppm: 100%

## Cc1cc(SC(F)(F)C(F)(F)F)ccc1N(C)C(=O)N(C)C(=O)c1c(F)cccc1F [(106)]
[1]
  pest or weed control at 50 ppm: 100%

## CN(C(=O)c1c(F)cccc1Cl)C(=O)N(C)c1ccc(SC(F)(F)C(F)(F)C(F)(F)F)cc1F [(45)]
[1]
  pest or weed control at 50 ppm: 100%

## CCN(C(=O)N(C)C(=O)c1c(F)cccc1F)c1ccc(SC(F)(F)F)cc1F [(41)]
Plutella xylostella; [2]
  pest or weed control at 25 ppm: 100%
[1]
  pest or weed control at 50 ppm: 100%

## CN(C(=O)c1c(F)cccc1F)C(=O)N(C)c1ccc(SC(F)(F)C(F)(F)C(F)(F)F)cc1F [(22)]
Plutella xylostella
  pest or weed control at 5 ppm: 100%
[1]; test concentration 3.2 ppm
  pest or weed control at 3.2 ppm: 100%

## CN(C(=O)NC(=O)c1c(Cl)cccc1Cl)c1ccc(SC(F)(F)F)cc1F [(95)]
Spondoptela litura
  pest or weed control at 500 ppm: 100%

## CN(C(=O)c1c(F)cccc1F)C(=O)N(C)c1ccc(S(=O)(=O)C(F)(F)F)cc1F [(21)]
Plutella xylostella; [3]
  pest or weed control at 1 ppm: 100%

## Cc1cc(SC(F)(F)F)ccc1N(C)C(=O)N(C)C(=O)c1c(F)cccc1F [(42)]
Plutella xylostella; [2]
  pest or weed control at 25 ppm: 100%

## Cc1c(SC(F)(F)C(F)(F)F)ccc(N(C)C(=O)N(C)C(=O)c2c(F)cccc2F)c1C [(49)]
[1]
  pest or weed control at 50 ppm: 100%

## CN(C(=O)c1c(F)cccc1F)C(=O)N(C)c1ccc(SC(F)(F)C(F)C(F)(F)F)cc1F (stereo not shown) [(47)]
[1]
  pest or weed control at 50 ppm: 100%

## CN(C(=O)NC(=O)c1c(F)cccc1F)c1ccc(SC(F)(F)C(F)C(F)(F)F)cc1F (stereo not shown) [(31)]
[1]
  pest or weed control at 50 ppm: 100%

## CN(C(=O)N(Cc1ccccn1)C(=O)c1c(F)cccc1F)c1ccc(SC(F)(F)F)cc1F [(76)]
[1]
  pest or weed control at 50 ppm: 100%

## CN(C(=O)NC(=O)c1c(F)cccc1F)c1ccc(SC(F)F)cc1F [(57)]
Plutella xylostella; [4]
  pest or weed control at 5 ppm: 100%

## CN(C(=O)N(CCN1CCOCC1)C(=O)c1c(F)cccc1F)c1ccc(SC(F)(F)F)cc1F [(80)]
Spondoptela litura
  pest or weed control at 500 ppm: 100%

## CC(=O)N(C(=O)c1c(F)cccc1F)C(=O)N(C)c1ccc(SC(F)(F)F)cc1F [(52)]
Plutella xylostella; [4]
  pest or weed control at 5 ppm: 100%

## CN(C(=O)NC(=O)c1c(F)cccc1F)c1ccc(C(=O)OC(C)(C)C)cc1F [(37)]
Plutella xylostella; [2]
  dead pest rate: 100%

## CN(C(=O)N(CC1CC1)C(=O)c1c(F)cccc1F)c1ccc(SC(F)(F)F)cc1F [(71)]
Spondoptela litura
  pest or weed control at 500 ppm: 100%
[1]
  pest or weed control at 50 ppm: 100%

## CN(C(=O)NC(=O)c1c(F)cccc1F)c1ccc(S(=O)(=O)C(F)(F)C(F)F)cc1F [(25)]
Plutella xylostella; [4]
  pest or weed control at 5 ppm: 100%
[1]
  pest or weed control at 12.5 ppm: 100%

## COCN(C(=O)c1c(F)cccc1F)C(=O)N(C)c1ccc(SC(F)(F)F)cc1F [(11)]
Plutella xylostella; [2]
  pest or weed control at 25 ppm: 100%

## CN(C(=O)NC(=O)c1c(F)cccc1F)c1ccc(SC(F)F)cc1Cl [(34)]
[1]
  pest or weed control at 50 ppm: 100%

## CN(C(=O)NC(=O)c1c(F)cccc1F)c1ccc(SC(F)(F)C(F)(F)F)cc1F [(30)]
Plutella xylostella; [4]
  pest or weed control at 5 ppm: 100%
[1]
  pest or weed control at 50 ppm: 100%

## CCSc1ccc(N(C)C(=O)N(C)C(=O)c2c(F)cccc2F)c(F)c1 [(16)]
Plutella xylostella; [2]
  pest or weed control at 25 ppm: 100%

## CN(C(=O)c1c(F)cccc1F)C(=O)N(C)c1ccc(SC(F)(F)F)cc1Cl [(104)]
[1]
  pest or weed control at 50 ppm: 100%

## Cc1cc(SC(F)(F)C(F)(F)F)ccc1N(C)C(=O)NC(=O)c1c(F)cccc1F [(105)]
Plutella xylostella; [2]
  pest or weed control at 25 ppm: 100%
[1]
  pest or weed control at 50 ppm: 100%

## CN(C(=O)NC(=O)c1c(F)cccc1F)c1ccc([S+]([O-])C(F)(F)F)cc1F (stereo not shown) [(18)]
Plutella xylostella; [3]
  pest or weed control at 1 ppm: 100%

## C#CCN(C(=O)c1c(F)cccc1F)C(=O)N(C)c1ccc(SC(F)(F)F)cc1F [(60)]
Plutella xylostella; [2]
  pest or weed control at 25 ppm: 100%

## CN(C(=O)c1c(F)cccc1F)C(=O)N(C)c1ccc([S+]([O-])C(F)(F)F)cc1F (stereo not shown) [(19)]
Plutella xylostella; [3]
  pest or weed control at 1 ppm: 100%

## CN(C(=O)c1c(F)cccc1F)C(=O)N(C)c1ccc(S(=O)(=O)C(F)(F)C(F)F)cc1F [(40)]
[1]
  pest or weed control at 12.5 ppm: 100%

## COc1cccc(CN(C(=O)c2c(F)cccc2F)C(=O)N(C)c2ccc(SC(F)(F)F)cc2F)c1 [(119)]
Spondoptela litura
  pest or weed control at 500 ppm: 100%

## CSCCN(C(=O)c1c(F)cccc1F)C(=O)N(C)c1ccc(SC(F)(F)F)cc1F [(73)]
[1]
  pest or weed control at 50 ppm: 100%

## CSc1ccc(N(C)C(=O)NC(=O)c2c(F)cccc2F)c(C(F)(F)F)c1 [(121)]
Spondoptela litura
  pest or weed control at 500 ppm: 100%

## CN(C(=O)NC(=O)c1c(F)cccc1Cl)c1ccc(SC(F)(F)C(F)(F)C(F)(F)F)cc1F [(29)]
[1]
  pest or weed control at 50 ppm: 100%

## Cc1cc(SC(F)(F)C(F)F)ccc1N(C)C(=O)N(C)C(=O)c1c(F)cccc1F [(131)]
[1]
  pest or weed control at 50 ppm: 100%

## CN(C(=O)NC(=O)c1c(F)cccc1F)c1ccc(SC(F)(F)C(F)OC(F)(F)F)cc1F (stereo not shown) [(109)]
Plutella xylostella; [2]
  pest or weed control at 25 ppm: 100%
[1]
  pest or weed control at 50 ppm: 100%

## CN(C(=O)NC(=O)c1c(F)cccc1F)c1ccc([S+]([O-])C(F)(F)C(F)F)cc1F (stereo not shown) [(24)]
[1]
  pest or weed control at 12.5 ppm: 100%

## CN(C(=O)NC(=O)c1c(F)cccc1F)c1ccc(SC(F)(F)C(F)(F)F)cc1Cl [(107)]
[1]
  pest or weed control at 50 ppm: 100%

## CN(C(=O)N(C(=O)c1c(F)cccc1F)C1CC1)c1ccc(SC(F)(F)F)cc1F [(69)]
[1]
  pest or weed control at 50 ppm: 100%

## CN(C(=O)NC(=O)c1c(F)cccc1Cl)c1ccc(SC(F)(F)C(F)F)cc1F [(23)]
[1]
  pest or weed control at 12.5 ppm: 100%

## CN(C(=O)c1c(F)cccc1F)C(=O)N(C)c1ccc(SC(F)(F)F)cc1 [(117)]
Spondoptela litura
  pest or weed control at 500 ppm: 100%
[1]
  pest or weed control at 50 ppm: 100%

## CCN(C(=O)c1c(F)cccc1F)C(=O)N(C)c1ccc(SC(F)(F)F)cc1F [(56)]
Plutella xylostella; [2]
  pest or weed control at 25 ppm: 100%
[1]
  pest or weed control at 50 ppm: 100%

## CN(C(=O)c1c(F)cccc1F)C(=O)N(C)c1ccc(SC(F)(F)C(F)(F)F)cc1Cl [(108)]
[1]
  pest or weed control at 50 ppm: 100%

## CN(C(=O)NC(=O)c1c(F)cccc1F)c1ccc(SC(F)(F)C(F)(F)C(F)(F)F)cc1F [(28)]
[1]
  pest or weed control at 50 ppm: 100%

## Cc1cc(SC(F)(F)F)ccc1N(C)C(=O)NC(=O)c1c(F)cccc1F [(36)]
Plutella xylostella; [4]
  pest or weed control at 5 ppm: 100%
[1]
  pest or weed control at 12.5 ppm: 100%

## CN(C(=O)NC(=O)c1c(F)cccc1F)c1ccc(SC(F)(F)F)cc1 [(7)]
Plutella xylostella; [4]
  pest or weed control at 5 ppm: 100%
[1]
  pest or weed control at 12.5 ppm: 100%

## CN(C(=O)N(C(=O)c1c(F)cccc1F)S(C)(=O)=O)c1ccc(SC(F)(F)F)cc1F [(54)]
Plutella xylostella; [2]
  pest or weed control at 25 ppm: 100%

## CN(C(=O)c1c(Cl)cccc1Cl)C(=O)N(C)c1ccc(SC(F)(F)F)cc1F [(96)]
Spondoptela litura
  pest or weed control at 500 ppm: 100%
